Measurements reported in the supplement of paper PMC11127212.

Assays:
[1] = collision cross section (TWIMS, N2) of ion [M+Na]+; higher = larger gas-phase ion cross section; conditions: ionization: ESI positive; LC: HILIC, pH 3.0 ammonium formate
Method: (§1)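 Reference standards (20-100 uM) were separated by HILIC UPLC (BEH HILIC, 45 °C): acidic pH 3.0 ammonium formate/formic acid for ESI+ and basic pH 9.0 ammonium acetate/ammonia for ESI-. They were analysed on a Synapt G2-Si traveling-wave IMS-QTOF with nitrogen drift gas (WH 30 V; WV 800 m/s in ESI+ and 1000 m/s in ESI-). CCS (TWCCSN2, Å2) was calibrated with Major Mix IMS/TOF and LockCCS leucine enkephalin; inter-day RSD was <1%.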

[2] = collision cross section (TWIMS, N2) of ion [M-H]-; higher = larger gas-phase ion cross section; conditions: ionization: ESI negative; LC: HILIC, pH 9.0 ammonium acetate
Method: as §1, with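 “ESI-).” for “ESI-). CCS (TWCCSN2, Å2) was calibrated with Major Mix IMS/TOF and LockCCS leucine enkephalin; inter-day RSD was <1%.”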

[3] = collision cross section (TWIMS, N2) of ion [M+Na-2H]-; higher = larger gas-phase ion cross section; conditions: ionization: ESI negative; LC: HILIC, pH 9.0 ammonium acetate
Method: as §1

[4] = retention time on BEH HILIC column (20 min gradient, 0.4 mL/min); higher = later elution; conditions: LC: HILIC
Method: as §1, with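 “ESI-).” for “ESI-). CCS (TWCCSN2, Å2) was calibrated with Major Mix IMS/TOF and LockCCS leucine enkephalin; inter-day RSD was <1%.”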

[5] = collision cross section (TWIMS, N2) of ion [M+H-H2O]+; higher = larger gas-phase ion cross section; conditions: ionization: ESI positive; LC: HILIC, pH 3.0 ammonium formate
Method: as §1

[6] = collision cross section (TWIMS, N2) of ion [M+H]+; higher = larger gas-phase ion cross section; conditions: ionization: ESI positive; LC: HILIC, pH 3.0 ammonium formate
Method: as §1, with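 “ESI-).” for “ESI-). CCS (TWCCSN2, Å2) was calibrated with Major Mix IMS/TOF and LockCCS leucine enkephalin; inter-day RSD was <1%.”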

[7] = collision cross section (TWIMS, N2) of ion [M]+; higher = larger gas-phase ion cross section; conditions: ionization: ESI positive; LC: HILIC, pH 3.0 ammonium formate
Method: as §1

[8] = ionization: ESI negative, pH 9.0 ammonium acetate
[9] = ionization: ESI positive, pH 3.0 ammonium formate

CCCCCCCC/C=C\CCCCCCCC(=O)O [Oleic acid]
collision cross section [1]: 181.57 Å²
collision cross section [2]: 179.19 Å²
collision cross section [3]: 184.54 Å²
retention time on BEH HILIC column [4, 8]: 0.75 min
retention time on BEH HILIC column [4, 9]: 0.73 min

Nc1ccccc1C(=O)C[C@H](N)C(=O)O [L-kynurenine]
collision cross section [1]: 149.75 Å²
collision cross section [5]: 140.8 Å²
retention time on BEH HILIC column [4, 9]: 5.74 min
collision cross section [6]: 146.07 Å²

O=C(O)c1ccc(C(=O)O)o1 [2,5-furandicarboxylic acid]
collision cross section [3]: 129.41 Å²
retention time on BEH HILIC column [4, 8]: 7.28 min

C/C(=C\C(=O)O)CC(=O)O [3-methylglutaconic acid]
collision cross section [1]: 132.11 Å²
collision cross section [3]: 131.48 Å²
retention time on BEH HILIC column [4, 8]: 1.75 min
retention time on BEH HILIC column [4, 9]: 1.45 min

Cc1c[nH]c(=O)[nH]c1=O [Thymine]
collision cross section [5]: 122.06 Å²
collision cross section [2]: 120.89 Å²
retention time on BEH HILIC column [4, 8]: 1.03 min
retention time on BEH HILIC column [4, 9]: 1.05 min
collision cross section [6]: 120.81 Å²

O=C(O)[C@@H]1C[C@@H](O)CN1 [Hydroxyproline]
collision cross section [5]: 123.91 Å²
collision cross section [2]: 126.62 Å²
retention time on BEH HILIC column [4, 8]: 7.55 min
retention time on BEH HILIC column [4, 9]: 7.47 min
collision cross section [6]: 125.85 Å²

Cc1ncc(C[n+]2csc(CCO)c2C)c(N)n1 [Thiamine]
collision cross section [2]: 164.85 Å²
retention time on BEH HILIC column [4, 8]: 8.94 min
retention time on BEH HILIC column [4, 9]: 8.96 min
collision cross section [7]: 162.11 Å²

Cc1cccc(O)c1 [m-cresol]
collision cross section [5]: 123.87 Å²
collision cross section [2]: 122.73 Å²
retention time on BEH HILIC column [4, 8]: 0.75 min
retention time on BEH HILIC column [4, 9]: 0.77 min
collision cross section [6]: 126.19 Å²

O=C(O)CNC(=O)Cc1ccccc1 [Phenylacetylglycine]
collision cross section [5]: 138.2 Å²
collision cross section [2]: 146.28 Å²
retention time on BEH HILIC column [4, 8]: 2.16 min
retention time on BEH HILIC column [4, 9]: 2.11 min
collision cross section [6]: 142.08 Å²

CNC[C@H](O)c1ccc(O)c(O)c1 [Epinephrine]
collision cross section [5]: 136.45 Å²
collision cross section [2]: 140.21 Å²
retention time on BEH HILIC column [4, 8]: 5.61 min
retention time on BEH HILIC column [4, 9]: 5.91 min

O=c1cc[nH]c(=O)[nH]1 [Uracil]
collision cross section [5]: 120.58 Å²
collision cross section [2]: 115.77 Å²
retention time on BEH HILIC column [4, 8]: 1.08 min
retention time on BEH HILIC column [4, 9]: 1.08 min
collision cross section [6]: 120.27 Å²

CN(CC(=O)O)C(=N)N [Creatine]
collision cross section [5]: 122.05 Å²
retention time on BEH HILIC column [4, 9]: 7.83 min
collision cross section [6]: 122.23 Å²

COc1cc([C@H](O)C(=O)O)ccc1O [Vanillylmandelic acid]
collision cross section [5]: 135.63 Å²
collision cross section [2]: 144.75 Å²
retention time on BEH HILIC column [4, 8]: 4.41 min
retention time on BEH HILIC column [4, 9]: 2.72 min

CCCCCC/C=C\CCCCCCCC(=O)O [Palmitoleic acid]
collision cross section [5]: 161.08 Å²
collision cross section [2]: 173.54 Å²
retention time on BEH HILIC column [4, 8]: 1.03 min
retention time on BEH HILIC column [4, 9]: 0.79 min
collision cross section [6]: 175.21 Å²

O=C(O)[C@H]1O[C@H](O)[C@H](O)[C@@H](O)[C@@H]1O [Glucuronic acid]
collision cross section [5]: 134.39 Å²
collision cross section [2]: 129.91 Å²
retention time on BEH HILIC column [4, 8]: 8.46 min
retention time on BEH HILIC column [4, 9]: 0.72 min

C[C@@H](CCC(=O)O)CC(=O)O [3-methyladipic acid]
collision cross section [1]: 136.22 Å²
collision cross section [2]: 131.84 Å²
collision cross section [3]: 135.93 Å²
retention time on BEH HILIC column [4, 8]: 0.93 min
retention time on BEH HILIC column [4, 9]: 1.05 min

CC(C)(CO)[C@@H](O)C(=O)NCCC(=O)O [Pantothenic acid]
collision cross section [1]: 150.01 Å²
collision cross section [5]: 144.55 Å²
collision cross section [2]: 146.44 Å²
retention time on BEH HILIC column [4, 8]: 2.08 min
retention time on BEH HILIC column [4, 9]: 1.96 min
collision cross section [6]: 145.63 Å²

O=C(O)Cc1cccc(O)c1 [3-hydroxyphenylacetic acid]
collision cross section [1]: 139.98 Å²
collision cross section [3]: 132.19 Å²
retention time on BEH HILIC column [4, 8]: 0.99 min
retention time on BEH HILIC column [4, 9]: 0.99 min

N=C(NCCC[C@H](N)C(=O)O)N[C@@H](CC(=O)O)C(=O)O [Arginosuccinic acid]
collision cross section [5]: 160.05 Å²
collision cross section [2]: 164.65 Å²
retention time on BEH HILIC column [4, 8]: 12.7 min
retention time on BEH HILIC column [4, 9]: 11.2 min
